These are literature values, as cited in paper PMC7529705 (Biochemistry, 2020).

Entries after “also recorded” stand apart in the source; their conditions may differ. Where no end group is shown, it is not given here. me2a = asymmetric dimethylation (Arg)

This data set deals with WDR5. The settings on record: previously reported.

In the case of “H3R2me2a: Histone H3 1–7aa peptide, asymmetrically dimethylated at Arg2 (AR(me2a)TKQTA; UniProt P68431 2-8, looked up, fragment)”, the “Interaction with WDR5” value is given as “not to interact; also recorded: does not interact”.
